From patent publication US6737383B1, “Herbicidal oxadiazolidines” (priority 1999, dated 2004)

Assays:
giant foxtail = assay: Test B pre/postemergence giant foxtail; format: in vivo, Setaria faberii
Summary of the method: (§1)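 Response is a visual 0-to-10 score relative to untreated plants, where 0 means no effect and 10 means complete control, taken twelve to sixteen days after application. Treatments went onto soil at planting and onto foliage of 1- to 4-leaf plants, using a surfactant-containing non-phytotoxic solvent.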

bedstraw = assay: Test B pre/postemergence bedstraw; format: in vivo, Galium aparine
Summary of the method: as §1

velvetleaf = assay: Test B pre/postemergence velvetleaf; format: in vivo, Abutilon theophrasti
Summary of the method: as §1

morningglory = assay: Test B pre/postemergence morningglory; format: in vivo, Ipomoea hederacea
Summary of the method: as §1

crabgrass = assay: Test B pre/postemergence crabgrass; format: in vivo, Digitaria sanguinalis
Summary of the method: as §1

cocklebur = assay: Test B pre/postemergence cocklebur; format: in vivo, Xanthium strumarium
Summary of the method: as §1

corn = assay: Test B pre/postemergence corn; format: in vivo, Zea mays
Summary of the method: as §1

sugar beet = assay: Test B pre/postemergence sugar beet; format: in vivo, Beta vulgaris
Summary of the method: as §1

soybean = assay: Test B pre/postemergence soybean; format: in vivo, Glycine max
Summary of the method: as §1

purple nutsedge = assay: Test B pre/postemergence purple nutsedge; format: in vivo, Cyperus rotundus
Summary of the method: as §1

rape = assay: Test B pre/postemergence rape; format: in vivo, Brassica napus
Summary of the method: as §1

pigweed = assay: Test B pre/postemergence pigweed; format: in vivo, Amaranthus retroflexus
Summary of the method: as §1

surinam grass = assay: Test B pre/postemergence surinam grass; format: in vivo, Brachiaria decumbens
Summary of the method: as §1

blackgrass = assay: Test B pre/postemergence blackgrass; format: in vivo, Alopecurus myosuroides
Summary of the method: as §1

wheat = assay: Test B pre/postemergence wheat; format: in vivo, Triticum aestivum
Summary of the method: as §1

wild oat = assay: Test B pre/postemergence wild oat; format: in vivo, Avena fatua
Summary of the method: as §1

[1] = Postemergence, Rate 62 g/ha, scale 0 to 10, 0 is no effect, 10 is complete control
[2] = Postemergence, Rate 125 g/ha, scale of 0 to 10 where 0 is no effect and 10 is complete control
[3] = Postemergence, Rate 250 g/ha, scale of 0 to 10, 0 is no effect, 10 is complete control
[4] = Preemergence, Rate 62 g/ha, scale of 0 to 10 where 0 is no effect and 10 is complete control
[5] = Preemergence, Rate 125 g/ha, scale of 0 to 10 where 0 is no effect and 10 is complete control
[6] = Preemergence, Rate 250 g/ha, scale 0 to 10 (0 no effect, 10 complete control)
[7] = Preemergence, Rate 500 g/ha, scale of 0 to 10 where 0 is no effect and 10 is complete control
[8] = Rate 500 g/ha, Postemergence, scale 0 to 10, 0 is no effect, 10 is complete control

CC(C)N(C(=O)n1oc(=O)n(CCF)c1=O)c1ccc(F)cc1F [Compound 670]
Plant response rating, Giant foxtail (giant foxtail; [1]): 9
Giant foxtail plant response rating (giant foxtail; [2]): 9
Giant foxtail plant response rating (giant foxtail; [3]): 9
Giant foxtail plant response rating (giant foxtail; [4]): 10
Plant response rating, Giant foxtail (giant foxtail; [5]): 10
Plant response rating, Giant foxtail (giant foxtail; [6]): 10
Plant response rating, Giant foxtail (giant foxtail; [7]): 10
Giant foxtail plant response rating (giant foxtail; [8]): 9
Bedstraw plant response rating (bedstraw; [4]): 8
Plant response rating, Bedstraw (bedstraw; [5]): 8
Plant response rating, Bedstraw (bedstraw; [6]): 9
Plant response rating, Bedstraw (bedstraw; [7]): 9
Bedstraw plant response rating (bedstraw; [8]): 8
Plant response rating, Velvetleaf (velvetleaf; [1]): 5
Velvetleaf plant response rating (velvetleaf; [2]): 5
Velvetleaf plant response rating (velvetleaf; [4]): 6
Plant response rating, Velvetleaf (velvetleaf; [5]): 8
Plant response rating, Velvetleaf (velvetleaf; [6]): 8
Plant response rating, Velvetleaf (velvetleaf; [7]): 8
Velvetleaf plant response rating (velvetleaf; [8]): 4
Plant response rating, Morningglory (morningglory; [1]): 3
Morningglory plant response rating (morningglory; [2]): 3
Morningglory plant response rating (morningglory; [3]): 6
Morningglory plant response rating (morningglory; [4]): 2
Plant response rating, Morningglory (morningglory; [5]): 7
Plant response rating, Morningglory (morningglory; [6]): 8
Plant response rating, Morningglory (morningglory; [7]): 8
Morningglory plant response rating (morningglory; [8]): 4
Plant response rating, Crabgrass (crabgrass; [1]): 9
Crabgrass plant response rating (crabgrass; [2]): 8
Crabgrass plant response rating (crabgrass; [3]): 8
Crabgrass plant response rating (crabgrass; [4]): 10
Plant response rating, Crabgrass (crabgrass; [5]): 10
Plant response rating, Crabgrass (crabgrass; [6]): 10
Plant response rating, Crabgrass (crabgrass; [7]): 10
Crabgrass plant response rating (crabgrass; [8]): 8
Plant response rating, Cocklebur (cocklebur; [1]): 2
Cocklebur plant response rating (cocklebur; [2]): 2
Cocklebur plant response rating (cocklebur; [3]): 2
Cocklebur plant response rating (cocklebur; [4]): 0
Plant response rating, Cocklebur (cocklebur; [5]): 0
Plant response rating, Cocklebur (cocklebur; [7]): 2
Cocklebur plant response rating (cocklebur; [8]): 3
Plant response rating, Corn (corn; [1]): 3
Corn plant response rating (corn; [2]): 4
Corn plant response rating (corn; [3]): 5
Corn plant response rating (corn; [4]): 2
Plant response rating, Corn (corn; [5]): 4
Plant response rating, Corn (corn; [6]): 8
Plant response rating, Corn (corn; [7]): 9
Corn plant response rating (corn; [8]): 6
Plant response rating, Sugarbeets (sugar beet; [1]): 0
Sugarbeets plant response rating (sugar beet; [2]): 2
Sugarbeets plant response rating (sugar beet; [4]): 8
Plant response rating, Sugarbeets (sugar beet; [5]): 9
Plant response rating, Sugarbeets (sugar beet; [6]): 9
Plant response rating, Sugarbeets (sugar beet; [7]): 9
Sugarbeets plant response rating (sugar beet; [8]): 2
Plant response rating, Soybean (soybean; [1]): 3
Soybean plant response rating (soybean; [2]): 2
Soybean plant response rating (soybean; [4]): 0
Plant response rating, Soybean (soybean; [5]): 3
Plant response rating, Soybean (soybean; [6]): 8
Plant response rating, Soybean (soybean; [7]): 9
Soybean plant response rating (soybean; [8]): 5
Plant response rating, Nutsedge (purple nutsedge; [1]): 0
Nutsedge plant response rating (purple nutsedge; [2]): 4
Plant response rating, Nutsedge (purple nutsedge; [5]): 5
Plant response rating, Nutsedge (purple nutsedge; [6]): 8
Plant response rating, Nutsedge (purple nutsedge; [7]): 10
Nutsedge plant response rating (purple nutsedge; [8]): 5
Plant response rating, Rape (rape; [1]): 0
Rape plant response rating (rape; [2]): 2
Rape plant response rating (rape; [4]): 8
Plant response rating, Rape (rape; [5]): 9
Plant response rating, Rape (rape; [6]): 10
Plant response rating, Rape (rape; [7]): 10
Rape plant response rating (rape; [8]): 4
Plant response rating, Redroot pigweed (pigweed; [1]): 7
Redroot pigweed plant response rating (pigweed; [2]): 7
Redroot pigweed plant response rating (pigweed; [4]): 9
Plant response rating, Redroot pigweed (pigweed; [5]): 10
Plant response rating, Redroot pigweed (pigweed; [6]): 10
Plant response rating, Redroot pigweed (pigweed; [7]): 10
Redroot pigweed plant response rating (pigweed; [8]): 9
Plant response rating, B. signalgrass (surinam grass; [1]): 3
Plant response rating, B. signalgrass (surinam grass; [2]): 7
B. signalgrass plant response rating (surinam grass; [3]): 7
B. signalgrass plant response rating (surinam grass; [4]): 8
Plant response rating, B. signalgrass (surinam grass; [5]): 9
Plant response rating, B. signalgrass (surinam grass; [6]): 10
Plant response rating, B. signalgrass (surinam grass; [7]): 10
B. signalgrass plant response rating (surinam grass; [8]): 8
Plant response rating, Blackgrass (blackgrass; [1]): 2
Blackgrass plant response rating (blackgrass; [2]): 4
Blackgrass plant response rating (blackgrass; [3]): 5
Blackgrass plant response rating (blackgrass; [4]): 8
Plant response rating, Blackgrass (blackgrass; [5]): 9
Plant response rating, Blackgrass (blackgrass; [6]): 10
Plant response rating, Blackgrass (blackgrass; [7]): 10
Blackgrass plant response rating (blackgrass; [8]): 5
Plant response rating, Wheat (wheat; [1]): 0
Wheat plant response rating (wheat; [2]): 0
Wheat plant response rating (wheat; [4]): 7
Plant response rating, Wheat (wheat; [5]): 9
Plant response rating, Wheat (wheat; [6]): 9
Plant response rating, Wheat (wheat; [7]): 9
Wheat plant response rating (wheat; [8]): 4
Plant response rating, Wild oats (wild oat; [1]): 0
Wild oats plant response rating (wild oat; [2]): 0
Wild oats plant response rating (wild oat; [4]): 7
Plant response rating, Wild oats (wild oat; [5]): 9
Plant response rating, Wild oats (wild oat; [6]): 9
Plant response rating, Wild oats (wild oat; [7]): 9
Wild oats plant response rating (wild oat; [8]): 3

CC(C)N(C(=O)n1oc(=O)n(CC(Cl)Cl)c1=O)c1ccc(F)cc1F [Compound 673]
Giant foxtail plant response rating (giant foxtail; [4]): 9
Plant response rating, Giant foxtail (giant foxtail; [5]): 10
Plant response rating, Giant foxtail (giant foxtail; [6]): 10
Plant response rating, Giant foxtail (giant foxtail; [7]): 10
Bedstraw plant response rating (bedstraw; [4]): 3
Plant response rating, Bedstraw (bedstraw; [6]): 4
Plant response rating, Bedstraw (bedstraw; [7]): 6
Velvetleaf plant response rating (velvetleaf; [4]): 0
Plant response rating, Velvetleaf (velvetleaf; [5]): 3
Plant response rating, Velvetleaf (velvetleaf; [6]): 3
Plant response rating, Velvetleaf (velvetleaf; [7]): 8
Morningglory plant response rating (morningglory; [4]): 0
Plant response rating, Morningglory (morningglory; [5]): 0
Plant response rating, Morningglory (morningglory; [6]): 0
Plant response rating, Morningglory (morningglory; [7]): 2
Crabgrass plant response rating (crabgrass; [4]): 4
Plant response rating, Crabgrass (crabgrass; [5]): 8
Plant response rating, Crabgrass (crabgrass; [6]): 10
Plant response rating, Crabgrass (crabgrass; [7]): 10
Cocklebur plant response rating (cocklebur; [4]): 0
Plant response rating, Cocklebur (cocklebur; [5]): 0
Plant response rating, Cocklebur (cocklebur; [6]): 0
Plant response rating, Cocklebur (cocklebur; [7]): 2
Corn plant response rating (corn; [4]): 0
Plant response rating, Corn (corn; [5]): 2
Plant response rating, Corn (corn; [6]): 4
Plant response rating, Corn (corn; [7]): 6
Sugarbeets plant response rating (sugar beet; [4]): 0
Plant response rating, Sugarbeets (sugar beet; [5]): 0
Plant response rating, Sugarbeets (sugar beet; [6]): 3
Plant response rating, Sugarbeets (sugar beet; [7]): 3
Soybean plant response rating (soybean; [4]): 0
Plant response rating, Soybean (soybean; [5]): 0
Plant response rating, Soybean (soybean; [6]): 0
Plant response rating, Soybean (soybean; [7]): 0
Nutsedge plant response rating (purple nutsedge; [4]): 0
Plant response rating, Nutsedge (purple nutsedge; [5]): 0
Plant response rating, Nutsedge (purple nutsedge; [6]): 2
Plant response rating, Nutsedge (purple nutsedge; [7]): 6
Rape plant response rating (rape; [4]): 1
Plant response rating, Rape (rape; [5]): 2
Plant response rating, Rape (rape; [6]): 2
Plant response rating, Rape (rape; [7]): 2
Redroot pigweed plant response rating (pigweed; [4]): 6
Plant response rating, Redroot pigweed (pigweed; [5]): 7
Plant response rating, Redroot pigweed (pigweed; [6]): 10
Plant response rating, Redroot pigweed (pigweed; [7]): 10
B. signalgrass plant response rating (surinam grass; [4]): 4
Plant response rating, B. signalgrass (surinam grass; [5]): 6
Plant response rating, B. signalgrass (surinam grass; [6]): 7
Plant response rating, B. signalgrass (surinam grass; [7]): 8
Blackgrass plant response rating (blackgrass; [4]): 3
Plant response rating, Blackgrass (blackgrass; [5]): 8
Plant response rating, Blackgrass (blackgrass; [6]): 9
Plant response rating, Blackgrass (blackgrass; [7]): 9
Wheat plant response rating (wheat; [4]): 0
Plant response rating, Wheat (wheat; [5]): 0
Plant response rating, Wheat (wheat; [6]): 0
Wild oats plant response rating (wild oat; [4]): 5
Plant response rating, Wild oats (wild oat; [6]): 9
Plant response rating, Wild oats (wild oat; [7]): 8

CCn1ncc(Cn2c(=O)on(C(=O)N(c3ccc(F)cc3)C(C)C)c2=O)c1Cl [Compound 685]
Giant foxtail plant response rating (giant foxtail; [4]): 9
Plant response rating, Giant foxtail (giant foxtail; [5]): 9
Plant response rating, Bedstraw (bedstraw; [5]): 0
Plant response rating, Bedstraw (bedstraw; [6]): 0
Plant response rating, Bedstraw (bedstraw; [7]): 0
Velvetleaf plant response rating (velvetleaf; [4]): 0
Plant response rating, Velvetleaf (velvetleaf; [5]): 0
Morningglory plant response rating (morningglory; [4]): 0
Plant response rating, Morningglory (morningglory; [5]): 0
Crabgrass plant response rating (crabgrass; [4]): 9
Plant response rating, Crabgrass (crabgrass; [5]): 9
Plant response rating, Crabgrass (crabgrass; [6]): 9
Cocklebur plant response rating (cocklebur; [4]): 0
Plant response rating, Cocklebur (cocklebur; [5]): 0
Plant response rating, Cocklebur (cocklebur; [6]): 0
Corn plant response rating (corn; [4]): 0
Plant response rating, Corn (corn; [5]): 0
Plant response rating, Corn (corn; [6]): 0
Sugarbeets plant response rating (sugar beet; [4]): 0
Plant response rating, Sugarbeets (sugar beet; [5]): 0
Soybean plant response rating (soybean; [4]): 0
Plant response rating, Soybean (soybean; [5]): 0
Plant response rating, Nutsedge (purple nutsedge; [5]): 0
Rape plant response rating (rape; [4]): 0
Plant response rating, Rape (rape; [5]): 0
Redroot pigweed plant response rating (pigweed; [4]): 0
Plant response rating, Redroot pigweed (pigweed; [5]): 4
B. signalgrass plant response rating (surinam grass; [4]): 5
Plant response rating, B. signalgrass (surinam grass; [5]): 7
Plant response rating, B. signalgrass (surinam grass; [6]): 9
Plant response rating, B. signalgrass (surinam grass; [7]): 9
Blackgrass plant response rating (blackgrass; [4]): 5
Plant response rating, Blackgrass (blackgrass; [5]): 7
Plant response rating, Blackgrass (blackgrass; [6]): 10
Plant response rating, Blackgrass (blackgrass; [7]): 10
Wheat plant response rating (wheat; [4]): 0
Plant response rating, Wheat (wheat; [5]): 0
Wild oats plant response rating (wild oat; [4]): 0
Plant response rating, Wild oats (wild oat; [5]): 3
